# In patent EP0180581B2, “DRUG PREPARATIONS OF REDUCED TOXICITY” (THE LIPOSOME COMPANY, INC., priority 1984, dated 1985):
# Where two headings read alike, the source gives them in different places.
# What was measured:
# patients = conditions: cited from earlier work
# [1] = LD50 of aminoglycoside antibiotics with and without phosphorylcholine, subcutaneous; format: in vivo; conditions: mouse, in vivo, sc, mg aminoglycoside antibiotic per kg body weight, Swiss Webster mice, survivors after 24 hours, read-out: LD₅₀
# Method: (§1) In order to determine the LD₅₀ of the aminoglycoside preparations a quantity of antibiotic was dissolved in 20 m| distilled water with or without phosphorylcholine to achieve a final 1:3 molar ratio of antibiotic to ligand. Then, 0.6 m| aliquots of serial dilutions of the aminoglycoside preparations were injected subcutaneously into Swiss Webster mice (ten animals per group, average weight 23 g each). After 24 hours the number of survivors in each group was determined and the LD₅₀ and 95% confidence limits for each were computed according to the Spearman-Karber Method for Quantal Data (from Finney, 1952, Statistical Method in Biological Assay, Hafner Pub. Co., New York).
# Swiss Webster mice [2] = assay: Toxicity (lethality) of streptomycin administered with and without ligand, subcutaneous; format: in vivo; conditions: streptomycin 1000 mg/kg subcutaneously, ligand 1:3 molar ratio, mixed immediately prior to administration
# [3] = in vitro; cited from earlier work
# mice = assay: Acute toxicity of streptomycin-ligand preparations, subcutaneous (Table II); format: in vivo; conditions: for effectiveness in reducing the toxicity of streptomycin: ligand mixed with streptomycin (1:3 or 1:1 molar ratio), 1000 mg streptomycin per kg subcutaneously in mice
# Swiss Webster mice [4] = assay: LD50 of aminoglycoside antibiotics with and without phosphorylcholine, subcutaneous; format: in vivo; conditions: mg aminoglycoside antibiotic per kg body weight, survivors after 24 hours
# Method: as §1
# L-cells [5] = assay: Cytotoxicity for L-cells (50% growth inhibition); conditions: 72 hours at 37°C
# erythrocytes = assay: Hemolytic effect on erythrocytes (released hemoglobin); format: cell-based
# L cells = assay: Cloning efficiency of L cells; format: cell-based
# Method: Plastic petri dishes (35 mm diameter) were seeded with 50 L-cells per dish in 2 m| MEM plus 10% fetal calf serum containing one of the amphotericin B preparations (2 dishes per amphotericin B preparation). The dishes were incubated for 10 days and the cloned cultures were stained with crystal violet as described above.
# C. albicans = assay: Minimum inhibitory concentration for C. albicans; format: cell-based; conditions: 50% growth inhibition, overnight at 35° C
# Method: The minimum inhibitory concentration (M.I.C.) of the amphotericin B preparations for C. albicans was determined as follows: each of the 5 preparations was serially diluted in a 96 round-bottomed well plate, using 1/2 step dilutions of drug in 50 »| Mico-broth per well and 3 wells for each dilution step. After dilutions were completed, each well received 50 »| broth containing 10³ cells of C. albicans. Plates were incubated overnight at 35° C in a humidified atmosphere.
# male Swiss-Webster mice = conditions: mouse, in vivo, iv, 400 mg/kg
# Method: Six male Swiss-Webster mice weighing 27 gms each were given a single intravenous injection of 400 mg/kg PEG-cholesterol.
# L-cells [6] = conditions: mouse, 72 h
# [7] = AmB preparations at 25 @g amphotericin B/m| medium, 10 days
compound,measurement,setting,value
"[H]/N=C(/N)N[C@H]1[C@H](O)[C@@H](O)[C@H](O[C@@H]2O[C@@H](C)[C@](O)(C=O)[C@H]2O[C@@H]2O[C@@H](CO)[C@H](O)[C@@H](O)[C@@H]2NC)[C@@H](N/C(N)=N\[H])[C@@H]1O [Streptomycin, streptomycin]",patients manifesting some vestibular disturbance,patients; 2g daily for 60 to 120 days,~75%
same,incidence of vestibular disturbance,patients; dose reduced to 1g daily,25%
same,LD50 at 24 h,[1],741 mg/kg
same,Lethality No. Dead/No. Inoculated,Swiss Webster mice [2],7/8
same,Percent Lethality,Swiss Webster mice [2],87.5%
C[C@@H]1[C@H](O)[C@@H](C)/C=C/C=C/C=C/C=C/C=C/C=C/C=C/[C@H](O[C@@H]2O[C@H](C)[C@@H](O)[C@H](N)[C@@H]2O)C[C@@H]2O[C@](O)(C[C@@H](O)C[C@@H](O)[C@H](O)CC[C@@H](O)C[C@@H](O)CC(=O)O[C@H]1C)C[C@H](O)[C@H]2C(=O)O [amphotericin B],affinity for ergosterol compared to cholesterol,[3],approximately ten times greater affinity
C[N+](C)(C)CCOP(=O)([O-])OC[C@H](O)CO [glycerolphosphorylcholine],effectiveness in reducing aminoglycoside toxicity,mice; general statement on ligands,less effective
O=P(O)(O)O[C@H]1[C@H](OP(=O)(O)O)[C@@H](OP(=O)(O)O)[C@H](OP(=O)(O)O)[C@@H](OP(=O)(O)O)[C@H]1OP(=O)(O)O [inositol hexaphosphate],effectiveness in reducing the toxicity of streptomycin,mice,very effective in reducing the toxicity of streptomycin
C[N+](C)(C)CCOP(=O)(O)O [phosphorylcholine],effectiveness in reducing aminoglycoside toxicity,mice; general statement on ligands,very effective in reducing aminoglycoside toxicity
same,effectiveness in reducing the toxicity of streptomycin,mice,very effective in reducing the toxicity of streptomycin
NCCOP(=O)(O)O [phosphorylethanolamine],effectiveness in reducing aminoglycoside toxicity,mice; general statement on ligands,less effective
Gentamycin,LD₅₀,Swiss Webster mice [4],692 mg/kg
Neomycin,LD₅₀,Swiss Webster mice [4],371 mg/kg
deoxycholate [DOC],"Minimum Inhibitory Concentration of Amphotericin B, L cells",L-cells [5],250.0 @g/m|
same,OD550nm,"erythrocytes; concentration 1 @g/m|, 2% erythrocytes, 37°C, 20 hours",0.03
same,OD550nm,"erythrocytes; concentration 2 @g/m|, 2% erythrocytes, 37°C, 20 hours",0.03
same,OD550nm,"erythrocytes; concentration 2.5 @g/m|, 2% erythrocytes, 37°C, 20 hours",0.03
same,OD550nm,"erythrocytes; concentration 15 @g/m|, 2% erythrocytes, 37°C, 20 hours",0.03
same,OD550nm,"erythrocytes; concentration 30 @g/m|, 2% erythrocytes, 37°C, 20 hours",0.03
same,OD550nm,"erythrocytes; concentration 60 @g/m|, 2% erythrocytes, 37°C, 20 hours",0.06
same,OD550nm,"erythrocytes; concentration 125 @g/m|, 2% erythrocytes, 37°C, 20 hours",0.23
same,OD550nm,"erythrocytes; concentration 250 @g/m|, 2% erythrocytes, 37°C, 20 hours",0.47
same,"Number of Clones, % of Control",L cells; [7],70.8%
same,"Number of Clones, Number of Colonies",L cells; [7],68
same,"Size of Colonies, % of Control",L cells; [7],92%
same,"Size of Colonies, Mean Diameter",L cells; [7],2.3
same,"Minimum Inhibitory Concentration of Amphotericin B, C. albicans",C. albicans,"5,000+ @g/m|"
egg lysophosphatidylcholine,effectiveness in reducing aminoglycoside toxicity,"mice; mouse, in vivo",very effective in reducing aminoglycoside toxicity
polyethylene glycol-cholesterol [PEG-Chol],overt signs of toxicity,male Swiss-Webster mice,No overt signs of toxicity
same,"Minimum Inhibitory Concentration of Amphotericin B, L cells",L-cells [6],500.0+ @g/m|
same,OD550nm,erythrocytes,0.03
same,"Number of Clones, Number of Colonies",L cells,83
same,"Size of Colonies, Mean Diameter",L cells,2.5
same,"Number of Clones, % of Control","L cells; mouse, l cells, 240 h",86.5%
same,"Size of Colonies, % of Control","L cells; mouse, l cells, 240 h",100%
same,"Minimum Inhibitory Concentration of Amphotericin B, C. albicans",C. albicans,"25,000+ @g/m|"
